US20240108637A1, “EPITE[…] AND/OR A STEROID SULFATASE INHIBITOR FOR USE IN TREATING OR IMPROVING AGE RELATED COGNITIVE IMPAIRMENT” (U[…] DE OLAVIDE, priority 2020, published 2024)
Entries after “also recorded” stand apart in the source; their conditions may differ. Structures can show the parent of a compound that is named as a salt.

Columns and labels:
C. elegans = experiment: Lifespan assays in C. elegans; assay type: in vivo, Caenorhabditis elegans; details: for life span / longevity: wild type background, FIG. 4f-g, FIG. 13c-d
Procedure: F2 L4 animals were shifted to 25° C. (t=0). ES treatment started at L4 stage, control and treated plates were prepared fresh and animals transferred each three days until death. Animals lost or dead by non-physiological causes were censured. Survival curves were generated using the product-limit method of Kaplan and Meier. The log-rank (Mantel-Cox) test was used to evaluate differences in survival and […] lower than 0.05 were considered significant.

[1] = test system: NL5901 strain expressing α-synuclein in muscle cells; experiment: Parkinson's disease model: mobility of NL5901 strain; assay type: in vivo, C. elegans; details: 1 μg/ml
From the text: We have studied the anatomical location of sul-2 expression from an extrachromosomal array and in single-copy insertion transgenic strains. […] There is no detectable expression in the germline in any transgenic strains (FIG. 2n and FIG. 10, 11a-b). ASE neurons are responsible for the attractive response of Na+ and Cl−, among others. Defects in odour sensing affect longevity. Therefore, we tested the ability of sul-2 mutants to respond to Cl− or Na+ and found no differences compared to wild type animals (FIG. 11c-d). Furthermore, sul-2 mutation increases the longevity of daf-10(m79), a long-lived mutant defective in sensory cilia formation25 (FIG. 11e). […] Reduction of sul-2 improves aging associated diseases in C. elegans Aging is considered the main risk factor for the onset of neurodegenerative disorders like Parkinson, Huntington, or Alzheimer's diseases. These disorders are caused by the progressive decline of proteostasis, which results in protein aggregation that compromises cellular functions and finally causes cell death. Germline-deficient C. elegans delay the symptoms derived from the proteotoxicity of ectopically expressed human β-amyloid (βA). We tested if sul-2 mutations or STX64 treatment improves the symptoms of C. elegans models for neurodegenerative diseases.

[2] = test system: GMC101 strain expressing human β-amyloid in muscle; experiment: Alzheimer's disease model: thermodependent paralysis of GMC101 strain; assay type: in vivo, C. elegans; details: 1 μg/ml
From the text: In this model, GFP-labelled dopaminergic neurons die due to α-synuclein toxicity. […] We also tested two different strains of Alzheimer's disease (AD) in worms, where immobility is caused by expression of βA protein in muscle cells.

daf-2(e1370) = experiment: Developmental arrest (dauer / L1) at 25° C.; assay type: in vivo, C. elegans; details: daf-2(e1370) background
Procedure: Worms were growth at 16° C. until L4, then shifted to 25° C. considering this Day 0 of adulthood. The pumping was counted under the Leica stereoscope at 100× magnification for 30 seconds. Data display from two independent biological assays (n=30 per day). Two-tailed Mann-Whitney t-test, ***p=0.0006. e Thrashing in sul-2(gk187) is similar to wild type but is slightly lower in sul-2 (pv17) at 25° C. on day 1 of adulthood. On day 6 at 25° of adulthood, the trashing on sul-2(gk187) is lower than wild type and sul-(pv17), with no differences among these last strains. The population of sul-2(gk17) at day 6 seems to distribute into two different populations, one with almost no thrashing and other with values similar to wild type a sul-2(pv17). […] In this condition, all animals from daf-2(e1370); sul-2(pv17) double mutants arrest at L1 stage. Similarly, more than 50% of animals arrest in L1 stage in daf-2(m577); sul-2(pv17) background, while none of the single mutants show this phenotype. i Example of sul-2(pv17) larvae, dauer larval arrest of daf-2(e1370) or L1 arrest of daf-2(e1370); sul-2 (pv17) and daf-2(e1370); sul-2(gk187) at 25° C. Animals were grown up to L4 at 16° C., then shifted at 25° C., progeny were scored or imaged after 72 hours. Photographs were taken in a Leica scope.

aged mice [3] = experiment: Object recognition test in aged mice; assay type: in vivo; details: aged mice, vs vehicle-treated, FIG. 21
Procedure: (§1) The first, object recognition, after training with identical objects, tests the ability to identify different objects exposed together with a familiar one. When this happens, the object discrimination index is positive and higher than 0.1. […] For this purpose, during training, the entry latency to the preferred site is established and the aversive stimulus is administered.

aged mice [4] = experiment: Passive avoidance test in aged mice (STM and LTM); assay type: in vivo; details: aged mice, vs vehicle-treated, FIG. 21
Procedure: as §1
During short- and long-term memory tests (STM and LTM) if the mouse associated the preferred place to the aversive stimulus, the input latency increases with respect to training.

16-month-old mice [5] = experiment: Open Field test; assay type: in vivo; details: FIG. 20; for habituation ability: aged animals, Open Field 15 minutes
Procedure: (§2) The “Open Field” is a test where the mouse must explore an unknown space for 15 minutes. In this test, both mobility and habituation (cognitive parameter that measures the individual's ability to recognize the environment) can be studied. On the other hand, the “Y maze” test is a test where the mouse explores the maze for 6 minutes. This test evaluates the distance traveled as a measure of mobility and the ability to visit triplets of arms without repeating any of them as a sign of immediate memory.

16-month-old mice [6] = experiment: Y maze test; assay type: in vivo; details: aged animals, Y maze 6 minutes, FIG. 20
Procedure: as §2

[7] = test system: mammalian model with intrahippocampal βA oligomers; details: local administration; previously reported; cited from earlier work

## C[C@]12CC[C@H]3[C@@H](CCC4=CC(=O)CC[C@@]43C)[C@@H]1CC[C@H]2OS(=O)(=O)O [ES, N,N-diethylethanamine;[(8R,9S,10R,13S,14S,17R)-10,13-dimethyl-3-oxo-1,2,6,7,8,9,11,12,14,15,16,17-dodecahydrocyclopenta[a]phenanthren-17-yl]hydrogen sulfate]
C. elegans; FIG. 15, treatment from L4 stage, 25° C., fer-15(b26) background, p<0.05 Log-Rank (Mantel-Cox)
  lifespan: significantly increased life span
C. elegans; sul-2(gk187) background, 1 μg/ml, FIG. 4f
  lifespan: does not further increase
C. elegans; sul-2(pv17) background, 1 μg/ml, FIG. 13c,d
  lifespan: does not increase further
C. elegans; sul-2 mutants backgrounds
  longevity: did not further increase longevity
C. elegans; 1 μg/ml
  life span / longevity: increases life span; also recorded: increased in longevity; also recorded: increases lifespan
[1]
  mobility with age: improved the mobility; also recorded: better result
[2]; FIG. 3h, FIG. 4b
  paralysis phenotype: is ameliorate
[2]; normal NGM plates, FIG. 13a
  paralysis phenotype: is reduced
daf-2(e1370)
  L1 arrest: increase
Aged mice [3]
  learning and memory, object recognition test: showed significantly both learning (STM) and ability to store information (memory); also recorded: significant improvement in both learning (STM) and ability to store information (memory)
Aged mice [3]; listed as E-S
  learning and memory, object recognition test: showed significantly both learning (STM) and ability to store information (memory)
Aged mice [4]
  learning (STM) and memory (LTM), passive avoidance test: showed significantly both learning (STM) and ability to store information (memory); also recorded: significant improvement in both learning (STM) and ability to store information (memory)
Aged mice [4]; listed as E-S
  learning (STM) and memory (LTM), passive avoidance test: showed significantly both learning (STM) and ability to store information (memory)
16-month-old mice [5]; 16-month-old mice, Open Field mobility and Y maze distance traveled
  motor ability (mobility): tend to improve
16-month-old mice [5]
  habituation ability: tend to improve
16-month-old mice [5]; listed as E-S
  habituation ability: are improved
16-month-old mice [6]
  immediate memory: tend to improve
16-month-old mice [6]; listed as E-S
  immediate memory: are improved

## C[C@]12CC[C@H]3[C@@H](CCC4=CC(=O)CC[C@@]43C)[C@@H]1CC[C@@H]2O [T, testosterone]
[1]
  mobility with age: No effect is observed
[1]; listed as testosterone
  mobility with age: showed no effect

## C[C@]12CC[C@H](O)CC1=CC[C@@H]1[C@@H]2CC[C@]2(C)C(=O)CC[C@@H]12 [DHEA]
[1]
  mobility with age: No effect is observed; also recorded: showed no effect

## pregnenolone sulfate [PregS]
[1]
  mobility with age: No effect is observed
[1]; listed as pregnenolone sulfate
  mobility with age: showed no effect

## dehidroepiandrosterone sulfate [DHEAS]
C. elegans; 1 μg/ml
  life span / longevity: does not affect longevity; also recorded: do not affect
[1]
  mobility with age: improved the mobility
daf-2(e1370)
  L1 arrest: increase

## C[C@]12CC[C@H]3[C@@H](CCC4=CC(=O)CC[C@@]43C)[C@@H]1CC[C@@H]2OS(=O)(=O)O [TS, [(8R,9S,10R,13S,14S,17S)-10,13-dimethyl-3-oxo-1,2,6,7,8,9,11,12,14,15,16,17-dodecahydrocyclopenta[a]phenanthren-17-yl] hydrogen sulfate]
C. elegans; 1 μg/ml
  life span / longevity: does not affect longevity; also recorded: do not affect
[1]
  mobility with age: improved the mobility
[2]; FIG. 3h, FIG. 4b
  paralysis phenotype: is ameliorate
[2]; normal NGM plates, FIG. 13a
  paralysis phenotype: is reduced
daf-2(e1370)
  L1 arrest: increase

## CCCCCCCCCCCCCC(=O)NCCc1ccc(OS(N)(=O)=O)cc1 [DU-14]
[7]
  memory loss: could alleviate memory loss
